Peptide text beside a SMILES is read from it. * marks the point of attachment. Cbz = O=C(OCc1ccccc1)*
Key:
H1299 D1 cells [1] = assay: Flow cytometry (propidium iodide) of PonA-induced Fhit-expressing cells; type: cell-based; settings: for sub-G1 population: 48 h
Description: (§8) FIG. 4E, FACS analysis of D1 and E1 cell cycle kinetics at 48 h after oxidative stress treatment. Cells were treated with PonA for 48 h and then with increasing concentrations of H2O2 (0.25 and 0.5 mM) for 4 h. Analysis was at 48 h after H2O2 treatment. All experiments were performed twice in triplicate.
(§9) FIG. 6C and FIG. 6D, the graphs show representative results of flow cytometry analyses of E1 and D1 cells. Cells were treated with PonA for 48 h and then with paclitaxel (50-500 ng/ml) (FIG. 6C) or cisplatin (0.05-0.2 mM) (FIG. 6D). Each data point was measured in triplicate at 24, 48, and 72 h (data shown for 48 h).
(§10) PonA-induced H1299 D1 and E1 cells were treated with 0.25 and 0.5 mM H2O2 or with chemotherapeutic drugs and incubated for varying times, as indicated in the text and figures. For both experiments the cells were collected, washed with phosphate-buffered saline, and resuspended in cold 70% ethanol. For analysis, cells were spun down, washed in phosphate-buffered saline, and suspended in 0.1 mg/ml propidium iodide/Triton X-100 staining solution (0.1% Triton X-100, 0.2 mg/ml DNase-free RNase A) for 30 min at room temperature and analyzed by flow cytometry.

H1299 E1 cells [2] = assay: Flow cytometry (propidium iodide) of PonA-treated Fhit-negative control cells; type: cell-based; settings: for sub-G1 population: 48 h
Description: as §8, §9, §10

[3] = test system: A549 cells transiently expressing Fhit; assay: Intracellular superoxide (ROS) by hydroethidine FACS, FHIT plasmid-transfected cells; type: cell-based, human
Description: (§1) FIG. 4A, fluorescence-activated cell sorter (FACS) analysis for ROS assessment in A549 cells 48 h after transfection with FHIT plasmid, with and without a 5-h H2O2 treatment. Empty vector-transfected cells served as control. Intracellular superoxide was determined according to the fluorescence of ethidium as a result of oxidation of hydroethidine by O2. M2 refers to the fraction of ROS positive cells.
(§2) The inventors herein then investigated determine whether ROS production could be involved in Fhit-mediated apoptosis. […] The inventors examined ROS production in A549 cells, with and without H2O2 treatment, after transient transfection with the FHIT expression plasmid. Intracellular superoxide was assessed by measuring ethidium fluorescence, as a result of oxidation of hydroethydine by superoxide. Intracellular superoxide was measured 5 h after stimulation with increasing concentrations of H2O2.
(§3) Assessment of Intracellular Reactive Oxygen Species (ROS)—Intracellular superoxide was measured through ethidium fluorescence as a result of oxidation by hydroethidine (dihydroethidium-HE; Molecular Probes). MNK74 stably Fhit expressing cells, A549 cells transiently expressing Fhit, and H1299 inducible Fhit expressing cells were treated with 0.5, 1.0, 2.0, and 4.0 mM H2O2 at 37° C.; 4 h later, hydroethidine (10 μM) was added to cells and incubated for 15 min at 37° C. Fluorescence was measured by flow cytometry. Dichlorofluorescein diacetate (DCFH-DA) (Molecular Probes) was used in D1 cells expressing induced Fhit, stressed with H2O2 (0.1 to 1.0 mM), treated with 10 μM DCFH-DA, and incubated for 1 h at 37° C. DCF fluorescence was measured by flow cytometry on a FAC-Scan flow cytometer and fluorescence microscopy.

[4] = test system: A549 cells (empty vector); assay: Intracellular superoxide (ROS) by hydroethidine FACS, empty vector-transfected cells; type: cell-based, human
Description: as §1, §2, §3

H1299 D1 cells [5] = assay: ROS assessment by hydroethidine FACS, Fhit-positive cells; type: cell-based; settings: 5 μM PonA 48 h
Description: (§4) FIG. 4B, FACS analysis for ROS assessment by the fluorescence produced from the oxidation of hydroethidine in D1 and E1 cells; 48 h after PonA treatment, cells were treated for 5 h with 0.5 and 1.0 mM H2O2 and oxidative stress was measured; % positive refers to the fraction of fluorescent cells, indicating ROS. These experiments were repeated three times with similar results.
(§5) A similar experiment was performed with p53 and Fhit negative lung cancer-derived H1299 D1 and E1 clones carrying PonA-inducible FHIT and empty vector expression plasmids, respectively; the cells were treated with 5 μM PonA and at 48 h treated with 0.5 and 1.0 mM H2O2; the % ROS-positive cells was higher in Fhit-positive D1 cells than in E1 control cells (20 versus 3.5% at 0.5 mM H2O2, and 78 versus 25% at 1.0 mM H2O2, respectively) (FIG. 4B).
(§6) Assessment of Intracellular Reactive Oxygen Species (ROS)—Intracellular superoxide was measured through ethidium fluorescence as a result of oxidation by hydroethidine (dihydroethidium-HE; Molecular Probes). […] Fluorescence was measured by flow cytometry. […] DCF fluorescence was measured by flow cytometry on a FAC-Scan flow cytometer and fluorescence microscopy.

H1299 E1 cells [6] = assay: ROS assessment by hydroethidine FACS, control cells; type: cell-based; settings: 5 μM PonA 48 h
Description: as §4, §5, §6

H1299/D1 cells = assay: Colony formation assay; type: cell-based; settings: Fhit-expressing cells, 0.25 mM or higher H2O2, 5-h treatment
Description: FIG. 4F, colony formation assay of H1299/D1 and H1299/E1 cells after […] PonA stimulation and a 5-h H2O2 treatment at the indicated concentrations.

H1299 D1 and E1 cells = assay: MTS cell viability assay, D1 compared with E1 cells; settings: for sensitivity of D1 cells relative to E1 cells (MTS cell viability): after induction of Fhit expression, paclitaxel 50-500 ng/ml or cisplatin 0.05-0.2 mM, 24 or 48 h
Description: FIG. 4D, MTS cell viability assays were performed on E1 and D1 cells. Cells were treated with PonA for 48 h and then with increasing concentrations of H2O2 (0.125, 0.25, and 0.5 mM) for 4 h. Analysis was at 24 h after H2O2 treatment. Columns report the average of four experiments ±S.E. Each point was measured in quadruplicate and standard deviation calculated; p<0.05 was considered significant.
MTS assays performed on E1 and D1 cells. Cells were treated with PonA for 48 h and then treated with paclitaxel (50-500 ng/ml) (FIG. 6A) or cisplatin (0.05-0.2 mM) (FIG. 6B) for 24 or 48 h.
Chemotherapeutic Drug Treatment—Paclitaxel (Sigma) was dissolved in DMSO as a 10 mmol/liter stock solution and stored at −80° C. Cisplatin (Sigma) was dissolved in water and freshly prepared before use. H1299 D1 and E1 cells were seeded (1×10^4 cells/well) in 96-well culture plates, PonA-induced, and after 24 h treated with paclitaxel (50, 100, and 500 ng/ml) or cisplatin (0.05, 0.1, and 0.2 mM). H1299 D1 and E1 cells PonA-induced were incubated for 24, 48, and 72 h and assessed for viability with an MTS kit (Cell Titer 96® Aqueous MTS kit, Upstate Biotechnology, Lake Placid, N.Y.), as recommended by the manufacturer.

MKN74A116 cells = assay: ROS assessment in gastric cancer cells expressing exogenous Fhit; type: cell-based, human; settings: Fhit-expressing MKN74 cells, 2 mM H2O2, 5 hr
Description: FIG. 10. TABLE 2, Fhit induces generation of ROS in MKN74 gastric cancer cells. ROS assessment was performed with MKN74A116, a human gastric cancer cell line carrying a p53 mutant allele and expressing exogenous Fhit; Fhit-negative MKN74E4 cells were used as a control. To induce ROS generation, we treated MKN74 cells for 5 hr with 0.5, 1.0 and 2.0 mM H2O2. […] Numbers report the average of four experiments ±S.E.
as §3

Fdxr in D1 and E1 cells = assay: Immunoblot of Fdxr protein level after proteasome inhibition; type: cell-based; settings: 4 h after MG132 treatment (25 μA)
Description: FIG. 5B, immunoblot analysis of Fdxr expression in D1 and E1 cells after a 4-h treatment with 25 μA MG132, a proteasome inhibitor.
(§7) Western Blot Analysis—Immunoblot analyses were performed as described (13) using monoclonal anti-pentaHis (Qiagen); rabbit polyclonal anti-Fhit (Zymed Laboratories Inc.); rabbit polyclonal antisera against GFP, Hsp60, Hsp10, and cytochrome c (Santa Cruz Biotechnology); rabbit polyclonal anti-Fdxr (Abcam); monoclonal anti-CoxIV (Molecular Probes); anti-V5 (Sigma); anti-Parp1 (Santa Cruz Biotechnology); and anti-caspase 3 (Cell Signaling). Protein levels were normalized relative to β-actin or/and GAPDH^3 level, detected with appropriate antisera (Santa Cruz Biotechnology).

PonA-induced D1 cells = assay: Immunoblot of caspase 3 and Parp1 cleavage; type: cell-based; settings: 48 h; paclitaxel 50 and 100 ng/ml, cisplatin 0.05 and 0.1 mM; compared with untreated cells
Description: FIG. 6E, caspase 3 and Parp1 cleavage: immunoblot analyses, using Fhit, caspase 3, and Parp1 antisera, of total cell lysates from PonA-induced D1 cells after 48 h of treatment with paclitaxel (50 and 100 ng/ml) or cisplatin (0.05 and 0.1 mM). GAPDH served as loading control.
At 24 and 72 h (data not shown) increased sub-G1 populations in D1 compared with E1 cells were also detected. To determine whether the sub-G1 fractions of D1 cells represented apoptotic cells, lysates were prepared from drug-treated cells at 48 h and immunoblot analysis performed for caspase 3 and Parp1 cleavage (FIG. […]).
as §7

Question: With OO [H2O2] as the compound, how does the G2/M arrest (H1299 D1 cells [1]; 48 h after 0.25 mM H2O2) read?
Answer: Its G2/M arrest is 45.5%.

Question: What about the G2/M arrest (H1299 D1 cells [1]; 48 h after 0.5 mM H2O2) of the same compound?
Answer: Its G2/M arrest is 49.5%.

Question: What about the G2/M arrest (H1299 E1 cells [2]; 48 h after 0.25 mM H2O2) of the same compound?
Answer: Its G2/M arrest is 27.5%.

Question: And the G2/M arrest (H1299 E1 cells [2]; 48 h after 0.5 mM H2O2)?
Answer: Its G2/M arrest is 29%.

Question: What about the “ROS generation (fraction of ROS positive cells)” value ([3]; FHIT-transfected A549, 0.5 mM H2O2, 5 h) of the same compound?
Answer: Its value is 16.7%.

Question: What about the “ROS generation (fraction of ROS positive cells)” value ([3]; FHIT-transfected A549, 1.0 mM H2O2, 5 h) of the same compound?
Answer: Its value is 18.8%.

Question: What about the toxicity to cells ([3]; Fhit-expressing A549, 2 mM H2O2) of the same compound?
Answer: The toxicity to cells was “toxic”.

Question: What about the “ROS generation (fraction of ROS positive cells)” value ([4]; empty vector A549, 0.5 mM H2O2, 5 h) of the same compound?
Answer: The value was 5.4%.

Question: What about the “ROS generation (fraction of ROS positive cells)” value ([4]; empty vector A549, 1.0 mM H2O2, 5 h) of the same compound?
Answer: Its value is 7.7%.

Question: And the toxicity to cells ([4]; non-expressing A549, 2 mM H2O2)?
Answer: Its toxicity to cells is “not to non-expressing cells”.

Question: And the “% ROS-positive cells” value (H1299 D1 cells [5]; 0.5 mM H2O2)?
Answer: The value was 20%.

Question: What about the “% ROS-positive cells” value (H1299 D1 cells [5]; 1.0 mM H2O2) of the same compound?
Answer: Its value is 78%.

Question: What about the “% ROS-positive cells” value (H1299 E1 cells [6]; 0.5 mM H2O2) of the same compound?
Answer: The value was 3.5%.

Question: What about the “% ROS-positive cells” value (H1299 E1 cells [6]; 1.0 mM H2O2) of the same compound?
Answer: The value was 25%.

Question: And the colony formation (H1299/D1 cells)?
Answer: Its colony formation is “No colonies were detected”.

Question: What about the “cell viability (MTS cytotoxicity assay)” value (H1299 D1 and E1 cells; 24 h after H2O2 treatment (0.125, 0.25, 0.5 mM, 4 h)) of the same compound?
Answer: The value was “reduced cell viability or growth arrest in both E1 and D1 cells, but this phenotype was more pronounced in D1 cells”.

Question: And the toxicity to cells (MKN74A116 cells)?
Answer: The toxicity to cells was “toxicity was observed”.

Question: How did the “Fdxr protein level in D1 cells compared with E1 cells” value (Fdxr in D1 and E1 cells) turn out when CC(C)C[C@@H](C=O)NC(=O)[C@H](CC(C)C)NC(=O)[C@H](CC(C)C)NC(=O)OCc1ccccc1 [MG132] (Cbz-Leu-Leu-Leu-aldehyde) was run?
Answer: Its value is “significant increase”.

Question: For N.N.[Cl][Pt][Cl] [cisplatin, Cisplatin], which sub-G1 population (H1299 D1 cells [1]; cisplatin 0.05 mM) is on record?
Answer: Its sub-G1 population is 5%.

Question: And the sub-G1 population (H1299 D1 cells [1]; cisplatin 0.1 mM)?
Answer: The sub-G1 population was 16.2%.

Question: And the sub-G1 population (H1299 D1 cells [1]; cisplatin 0.2 mM)?
Answer: Its sub-G1 population is 30%.

Question: And the sub-G1 population (H1299 E1 cells [2]; cisplatin 0.05 mM)?
Answer: Its sub-G1 population is 2.3%.

Question: And the sub-G1 population (H1299 E1 cells [2]; cisplatin 0.1 mM)?
Answer: The sub-G1 population was 7%.

Question: And the sub-G1 population (H1299 E1 cells [2]; cisplatin 0.2 mM)?
Answer: The sub-G1 population was 14.6%.

Question: And the “sensitivity of D1 cells relative to E1 cells (MTS cell viability)” value (H1299 D1 and E1 cells)?
Answer: Its value is “more sensitive”.

Question: And the “activated caspase 3 and related Parp1 cleavage” value (PonA-induced D1 cells)?
Answer: Its value is “observed”.

Question: CC(=O)O[C@H]1C(=O)[C@@]2(C)[C@H]([C@H](OC(=O)c3ccccc3)[C@]3(O)C[C@H](OC(=O)[C@H](O)[C@@H](NC(=O)c4ccccc4)c4ccccc4)C(C)=C1C3(C)C)[C@]1(OC(C)=O)CO[C@@H]1C[C@@H]2O [paclitaxel, Paclitaxel] was tested. Which sub-G1 population (H1299 D1 cells [1]; paclitaxel 50 ng/ml) did it give?
Answer: The sub-G1 population was 9.6%.

Question: What about the sub-G1 population (H1299 D1 cells [1]; paclitaxel 100 ng/ml) of the same compound?
Answer: Its sub-G1 population is 36%.

Question: What about the sub-G1 population (H1299 D1 cells [1]; paclitaxel 500 ng/ml) of the same compound?
Answer: The sub-G1 population was 40%.

Question: What about the sub-G1 population (H1299 E1 cells [2]; paclitaxel 50 ng/ml) of the same compound?
Answer: The sub-G1 population was 4%.

Question: What about the sub-G1 population (H1299 E1 cells [2]; paclitaxel 100 ng/ml) of the same compound?
Answer: The sub-G1 population was 16.7%.

Question: And the sub-G1 population (H1299 E1 cells [2]; paclitaxel 500 ng/ml)?
Answer: The sub-G1 population was 30%.

Question: What about the “sensitivity of D1 cells relative to E1 cells (MTS cell viability)” value (H1299 D1 and E1 cells) of the same compound?
Answer: The value was “more sensitive”.

Question: And the “activated caspase 3 and related Parp1 cleavage” value (PonA-induced D1 cells)?
Answer: Its value is “observed”.

Source: patent US8911998B2, “Methods for identifying fragile histidine triad (FHIT) interaction and uses thereof” (priority 2007, dated 2014)
